The subject of one assay is IL-2. Description: Inhibition of IL-2 production in PHA-activated Jurkat cells (1% FBS), ELISA. The conditions noted are these: Homo sapiens, activity class, read-out: IL-2 current inhibition Jurkat/PHA/1% FBS IC50. The format is cell-based. The procedure:
Jurkat cells were placed in a 96 well plate (0.5 million cells per well in 1% FBS medium), and then a test compound of this invention was added at different concentrations. After 10 minutes, the cells were activated with PHA (final concentration 2.5 μg/mL) and incubated for 20 hours at 37° C. under 5% CO2. The final volume was 200 Following incubation, the cells were centrifuged, and the supernatants collected and stored at −70° C. prior to assaying for IL-2 production. A commercial ELISA kit (IL-2 Eli-pair, Diaclone Research, Besancon, France) was used to detect production of IL-2, from which dose response curves were obtained. The IC50 value was calculated as the concentration at which 50% of maximum IL-2 production after stimulation was inhibited versus a non-stimulation control.

For another assay, the target named is T1, CRACM1/STIM1 (Homo sapiens, UniProt Q96D31).
T1 construct: Full length human Stim1, CracM1, CracM2 and CracM3 cDNA
Description: ICRAC current inhibition in CRACM1/STIM1-CHOK1 cells (patch clamp). The assay is classed as cell-based. The settings on record: activity class; for inhibition at 0.5 µM: 500 nM. The procedure: Manual patch clamp experiments are conducted in the tight-seal whole-cell configuration at room temperature (21-25° C.). Patch pipettes are fashioned from borosilicate glass capillary tubes and have resistances between 2-4 MO after filling with standard intracellular solution. High resolution current recordings are acquired with a computer-based patch clamp amplifier system (EPC-10, HEKA, Lambrecht, Germany). All voltages are corrected for a liquid junction potential of 10 mV between external and internal solutions with glutamate as the intracellular anion. Currents are filtered at 2.9 kHz and digitized at 10 μs intervals. Capacitive currents and series resistance are determined and corrected before each voltage ramp using the automatic capacitance compensation of the EPC-10.
Automated patch clamp experiments are conducted with the QPatch 16 (Sophion Bioscience, Ballerup, Denmark) at room temperature (21-25° C.). Immediately following the establishment of giga-seal whole-cell configuration, the cells membrane potential is clamped at 0 mV. Voltage ramps of 50 ms duration spanning the voltage range of −100 to +100 mV are then stimulated at a rate of 0.33 Hz. Currents are filtered at 2.9 kHz and digitized at 200 μs intervals. Capacitive currents and series resistance are determined and corrected before each voltage ramp using the automatic capacitance compensation.
In general, a whole cell patch clamp method is used to examine the effects of a compound of the invention on a channel(s) that mediates ICRAC. In such experiments, a baseline ICRAC measurement is established within the first 70 voltage ramps, or 140 seconds, for a patched cell. Then the cells are perfused with the compound to be tested and the effect of the compound on ICRAC is measured for at least an additional 440 to 500 seconds. A compound that modulates ICRAC (e.g., inhibits) is a compound that is useful in the invention for modulating CRAC ion channel activity.
ICRAC currents are measured using 50 msec voltage ramps between −100 mV to +100 mV. The voltage ramps are stimulated every 2 seconds for the first 70 sweeps, then every 5 seconds for the remainder of the experiment. The membrane potential is held at 0 mV between the test ramps. In a typical experiment, the peak inward currents will develop within 50-100 seconds. Once the ICRAC current is stabilized, the cells are perfused with a test compound in the extracellular solution for at least an additional 500 seconds.
Off-line analysis with the Heka PatchMaster software is used to separate the ICRAC membrane current from the cells basal background currents. In a typical recording, InsP3 stimulated ICRAC currents begin to develop in 6 to 12 seconds after whole cell is established. Therefore, the first 1-4 voltage ramps represent the basal membrane currents in the absence of ICRAC and the average value is subtracted from all subsequent traces. The current value at −80 mV for each ramp trace is then measured and plotted against time. The resulting current versus time data is exported into a Microsoft Excel spreadsheet. The % ICRAC inhibition in each cell is calculated by comparing the amount of current just prior to the compound perfusion to the amount of current after the cells has been perfused with the compound for 440-500 seconds. The IC50 value and Hill coefficient for each compound is estimated by fitting all the individual data points to a single-site Hill equation.
TREx™-CHO cells were transfected with human Stim1 (recombinant DNA in pcDNA4/TO/myc-His™ A with a myc epitope tag in the N-terminal) and either CracM1, CracM2 or CracM3 (recombinant DNA in pcDNA 3.1 with a HA epitope tag in the N-terminal). Stably expressing cells were selected by growing the transfected cells in antibiotics for two to three weeks. Individual cell clones were isolated via serial dilution. […]

T1 sequence (Q96D31 whole entry): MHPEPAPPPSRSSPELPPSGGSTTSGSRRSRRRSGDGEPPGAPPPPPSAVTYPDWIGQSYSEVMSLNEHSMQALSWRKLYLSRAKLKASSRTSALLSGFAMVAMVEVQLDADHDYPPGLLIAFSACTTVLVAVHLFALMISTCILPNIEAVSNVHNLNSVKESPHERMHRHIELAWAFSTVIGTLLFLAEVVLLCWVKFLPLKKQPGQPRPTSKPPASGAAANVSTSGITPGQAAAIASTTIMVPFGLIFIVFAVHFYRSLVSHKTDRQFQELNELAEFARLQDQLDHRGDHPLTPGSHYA

Take `Cc1cc(CCc2cccnc2)sc1-c1ccc(NC(=O)c2c(F)cccc2F)cc1` [Compound 8, 2,6-difluoro-N-(4-(3-methyl-5-(2-(pyridin-3-yl)ethyl)thiophen-2-yl)phenyl)benzamide]: the IC50 with IL-2 is below 50 nM. This molecule also gave an inhibition at 0.5 µM against CRACM1/STIM1 of 70 to 100%.
In the case of `C=C(C)c1sc(-c2cccnc2)cc1-c1ccc(NC(=O)c2c(F)cccc2F)nc1` [Compound 10, 2,6-difluoro-N-(5-(2-(prop-1-en-2-yl)-5-(pyridin-3-yl)thiophen-3-yl)pyridin-2-yl)benzamide], the IC50 in the assay on IL-2 was below 50 nM. On CRACM1/STIM1, this molecule registered an inhibition at 0.5 µM of 50 to 70%.
Regarding `CC(C)c1sc(-c2cccnc2)cc1-c1ccc(NC(=O)c2c(F)cccc2F)nc1` [Compound 11, 2,6-difluoro-N-(5-(2-isopropyl-5-(pyridin-3-yl)thiophen-3-yl)pyridin-2-yl)-benzamide], in the assay with IL-2, the IC50 is below 50 nM. In addition, the inhibition at 0.5 µM against CRACM1/STIM1 is below 50%.
The matching figures for `C=C(C)c1sc(-c2cccnc2)cc1-c1ccc(NC(=O)c2c(F)cccc2F)cc1` [Compound 14, 2,6-difluoro-N-(4-(2-(prop-1-en-2-yl)-5-(pyridin-3-yl)thiophen-3-yl)phenyl)benzamide]: below 50 nM and below 50%.
The like results for `CC(C)c1sc(-c2cccnc2)cc1-c1ccc(NC(=O)c2c(F)cccc2F)cc1` [Compound 15, 2,6-difluoro-N-(4-(2-isopropyl-5-(pyridin-3-yl)thiophen-3-yl)phenyl)benzamide] were, in that order, below 50 nM and 50 to 70%.
The like results for `Cc1sc(-c2cccnc2)nc1-c1ccc(NC(=O)c2c(F)cccc2F)cc1` [F] were, in that order, below 50 nM and 50 to 70%.
Consider `Cc1sc(-c2cnn(C)c2)nc1-c1ccc(NC(=O)c2c(F)cccc2F)cc1` [H], for which, in the assay with IL-2, the IC50 is below 50 nM. At CRACM1/STIM1, the inhibition at 0.5 µM was 70 to 100%.
Take `Cc1sc(C(=O)c2cccnc2)cc1-c1ccc(NC(=O)c2c(F)cccc2F)cc1` [O]: the IC50 in the assay on IL-2 was below 50 nM. Further, the “ICRAC current inhibition CRACM1/STIM1-CHOK1 % Inhibition at 500 nM” value on CRACM1/STIM1 is reported as “High”.

For the origin of these results see patent publication US8314130B2, “Compounds inclunding substituted pyridines for inflammation and immune-related uses” (Synta Pharmaceuticals Corp., priority 2008, dated 2012).
